Source: article PMC8201677, “Calycosin-loaded nanoliposomes as potential nanoplatforms for treatment of diabetic nephropathy through regulation of mitochondrial respiratory function” (Journal of Nanobiotechnology, 2021)

Assays:
[1] = Dissolution study in PBS pH 7.4; format: physicochemical
Method: The dissolution studies were performed based on the previous study. Briefly, the dissolution medium (pH 7.4, PBS, 900 ml) under stirring (100 rpm) was added by calycosin-loaded nanoliposomes which is equivalent to 50 mg of drug and at different time intervals, 15 mL samples were removed, replaced, filtrated ([…]), and dissolved in mixed solvent (methanol: distilled water = 5.5:3.5, v/v). Finally, 25 µl of the sample was injected into a HPLC system. The rest of the setup was similar to the above-mentioned explanations.

[2] = test system: mitochondria in kidney cells of diabetic rats; experiment: MTT assay of mitochondrial viability in diabetic rats; format: in vivo, Sprague–Dawley rats; conditions: streptozotocin diabetic rats, treated 4 weeks
Method: (§1) Diabetes was induced in mice by injecting streptozotocin purchased from Sigma (USA). Streptozotocin was dissolved in a citrate buffer (pH 6.5, 0.1 M) and injected at a dose of 65 mg/kg intraperitoneally. Blood glucose was measured before the test and one week after streptozotocin injection, and mice with blood glucose above […] were considered diabetic. The calycosin or calycosin-loaded nanoliposomes were dissolved in PBS until it was ready to be injected, and the mice received […] of calycosin-loaded nanoliposomes for 4 weeks after becoming diabetic. Vitamin E (100 mg/kg) was also used as a positive control group. Animals were randomly divided in 5 groups which each group consisted of 6 male mice. […] Protein concentration was measured as standard using bovine serum albumin (BSA). […] 100 µl of mitochondrial supernatants were mixed by MTT stock solution (5 mg mL^−1) for 4 h, followed by removing the supernatants, addition of 150 μL DMSO for 5 min, and reading the absorbance of the samples at 570 nm using a microplate reader (BIO-RAD microplate reader-550).

[3] = Pharmacokinetics in rats after oral administration; format: in vivo; conditions: male, Sprague-Dawley, rat, single dose 30 mg/kg calycosin, plasma
Method: […] male Sprague–Dawley rats were randomly divided into three groups ([…]) as control, treated with calycosin, and treated with calycosin-loaded nanoliposomes (dissolved in 1% ethanol). The doses of calycoin groups were 30 mg/kg for oral administration. After the rats were intragastrically administered with free or Nano-formulated calycosin, the 0.5 mL blood was taken from the fundus venous plexus of each rat at different time intervals. The blood samples were then centrifuged (4000 rpm, 10 min), and the plasma was removed and to stored − 80 °C. The content of the drug in the plasma sample was then calculated by the established LC-MS/MS method based on the previous report.

[4] = test system: mitochondria in kidney cells of diabetic rats; experiment: ROS measurement by DCFH-DA assay in diabetic rats; format: in vivo, Sprague–Dawley rats; conditions: streptozotocin diabetic rats, treated 4 weeks
Method: as §1, with “Then,” for “100 µl of mitochondrial supernatants were mixed by MTT stock solution (5 mg mL^−1) for 4 h, followed by removing”, “fluorescence intensity” for “supernatants, addition of 150 μL DMSO for 5 min, and reading the absorbance”, “samples was read” for “samples”, “λex/λem of 485 nm/530” for “570”, “spectrofluorometer (CLARIOstar, Offenburg, Germany).” for “microplate reader (BIO-RAD microplate reader-550).”

[5] = In vitro drug release in dialysis media (simulated gastric, intestinal and physiological fluid); format: physicochemical
Method: The EE and DL of the prepared calycosin-loaded nanoliposomes were determined by the dialysis method described previously. Briefly, 700 μL of the prepared calycosin-loaded nanoliposomes solution was added into a dialysis bag (cutoff of 8000), followed by putting into 20 mL of dialysis medium (PBS, pH 7.4). The samples were then shacked (10 h), and centrifuged (3000 rpm, 2 min) to determine the free calycosin concentration in the supernatant. Also, 500 µL of the calycosin-loaded nanoliposomes were added by 1500 μL of methanol, vortexed ([…]), sonicated (5 min), centrifuged (3000 rpm, 2 min) to calculate the total calycosin concentration (C0). 20 mL of the prepared calycosin-loaded nanoliposomes powder (V0) was weighted to calculate the solid powder mass (W0). 25 µl of the sample was injected into a HPLC system containing Phenomenex ODS analytical column (150 mm × 4.6 mm, 5 μm) with a guard column (30 mm × 10 mm, 3 μm) at 40 °C. The mobile phase was a mixture of methanol: double distilled water as follows:0.05 M KH2PO4 = 40:60:5, pH 4.0, with a flow rate of 1.0 ml/min [37]. The simulated gastric fluid was 0.1 mol/L HCl (100 mM, pH 1.2) supplemented with 0.5% Tween-80, the simulated intestinal fluid was PBS buffer (25 mM, pH 6.9) containing 0.5% Tween-80, and the simulated physiological buffer was PBS (150 mM, pH 7.4) containing 0.5% Tween-80. The cumulative drug release was then determined using the following equation [35]: Cumulative release rate%=[V1×(C1⋯+Ci1)+V2×Ci]/Vo×Co×100 where, V1 is the sampling amount, V2 is the volume of the dialysis medium, C1–Ci is the concentration of calycosin at each time point, and V0 and C0 are the volume and concentration of calycosin-loaded nanoliposomes added to the dialysis bag. Stability of calycosin-loaded nanoliposomes was explored for about two months at 37 °C by using particle size and encapsulation efficiency of the reconstituted nanoliposome.

[6] = test system: mitochondria in kidney cells of diabetic rats; experiment: Lipid peroxidation (MDA) by TBARS analysis in diabetic rats; format: in vivo, Sprague–Dawley rats; conditions: streptozotocin diabetic rats, treated 4 weeks

Compound: COc1ccc(-c2coc3cc(O)ccc3c2=O)cc1O [calycosin]
- dissolution rate [1]: low
- mitochondrial viability (MTT) in comparison with diabetic rats [2]: significant recovery of mitochondrial viability
- AUC(0-inf) [3]: 421 ± 73.3 ng·h/mL
- AUC(0-t) [3]: 409 ± 67.3 ng·h/mL
- Cmax [3]: 298 ± 35.8 ng/mL
- Tmax [3]: 0.19 ± 0.017 h
- half-life [3]: 6.98 ± 0.96 h
- MRT last ([3]; read-out: MRT0−t): 8.68 ± 1.27 h
- generation of ROS (DCF fluorescence intensity) [4]: potentially reduced the generation of ROS
- time of (almost) complete / 100% release ([5]; simulated gastric medium pH 1.2): ~20 h
- cumulative release ([5]; simulated gastric medium pH 1.2, 1 h): about 32%
- time of (almost) complete / 100% release ([5]; simulated intestinal fluid pH 6.9): ~100 h
- cumulative release ([5]; simulated intestinal fluid pH 6.9, 1 h): about 32%
- cumulative release ([5]; simulated intestinal fluid pH 6.9, 20 h): 90%
- time of (almost) complete / 100% release ([5]; simulated physiological fluid pH 7.4): ~120 h
- cumulative release ([5]; simulated physiological fluid pH 7.4, 1 h): about 7%
- cumulative release ([5]; simulated physiological fluid pH 7.4, 20 h): 55%
- MDA level (lipid peroxidation) [6]: remarkable decrease in lipid peroxidation
